Experimental findings from patent US12129223B2, “Lipids for use in lipid nanoparticle formulations” (Acuitas Therapeutics, Inc., priority 2021, dated 2024) are described below.

A short description of data set [1]: Determination of pKa of formulated lipids (TNS fluorescence assay in lipid nanoparticles). It counts as physicochemical. Particulars: lipid nanoparticles (compound/DSPC/cholesterol/PEG-lipid), lipid formulated in LNP (lipid/DSPC/cholesterol/PEG-lipid), pH at half-maximal intensity. The protocol: As described elsewhere, the pKa of formulated lipids is correlated with the effectiveness of LNPs for delivery of nucleic acids (see Jayaraman et al, Angewandte Chemie, International Edition (2012), 51(34), 8529-8533; Semple et al, Nature Biotechnology 28, 172-176 (2010)). In some embodiments, the preferred range of pKa is ˜5 to ˜7. The pKa of each lipid is determined in lipid nanoparticles using an assay based on fluorescence of 2-(p-toluidino)-6-napthalene sulfonic acid (TNS). Lipid nanoparticles comprising compound of structure (I)/DSPC/cholesterol/PEG-lipid (50/10/38.5/1.5 or 47.5:10:40.7:1.8 mol %) in PBS at a concentration of 0.4 mM total lipid are prepared using the in-line process as described in Example 1. TNS is prepared as a 100 μM stock solution in distilled water. Vesicles are diluted to 24 μM lipid in 2 mL of buffered solutions containing 10 mM HEPES, 10 mM MES, 10 mM ammonium acetate, and 130 mM NaCl, where the pH ranged from 2.5 to 11. An aliquot of the TNS solution is added to give a final concentration of 1 μM and following vortex mixing fluorescence intensity is measured at room temperature in a SLM Aminco Series 2 Luminescence Spectrophotometer using excitation and emission wavelengths of 321 nm and 445 nm. A sigmoidal best fit analysis is applied to the fluorescence data and the pKa is measured as the pH giving rise to half-maximal fluorescence intensity.

For data set [2], the system named is luciferase expression in the liver. Kind of data set: Luciferase mRNA in vivo evaluation using lipid nanoparticle compositions. Details: species or system mice. Particulars: LNP with FLuc mRNA, tail vein injection; for Liver Luc, *Determined at 0.5 mg/kg: 0.5 mg mRNA/kg (starred cells of the 0.3 mg/kg column), liver 4 hours after administration; for Liver Luc @ 0.3 mg/kg: 0.3 mg mRNA/kg; for Liver Luc @ 0.3 mg/kg / Liver Luc @ 1.0 mg/kg: ng luciferase/g liver 4 hours after administration; for Liver Luc @ 1.0 mg/kg: 1.0 mg mRNA/kg. The protocol:
A lipid of structure (I), DSPC, cholesterol and PEG-lipid are solubilized in ethanol at a molar ratio of 50:10:38.5:1.5 or 47.5:10:40.7:1.8. Lipid nanoparticles (LNP) are prepared at a total lipid to mRNA weight ratio of approximately 10:1 to 40:1. Briefly, the mRNA is diluted to 0.2 mg/mL in 10 to 50 mM citrate buffer, pH 4 or 10 to 25 mM acetate buffer, pH 4. Syringe pumps are used to mix the ethanolic lipid solution with the mRNA aqueous solution at a ratio of about 1:5 to 1:3 (vol/vol) with total flow rates above 15 mL/min. The ethanol is then removed and the external buffer replaced with PBS by dialysis. Finally, the lipid nanoparticles are filtered through a 0.2 µm pore sterile filter.
Studies are performed in 6-8 week old female C57BL/6 mice (Charles River) 8-10 week old CD-1 (Harlan) mice (Charles River) according to guidelines established by an institutional animal care committee (ACC) and the Canadian Council on Animal Care (CCAC). Varying doses of mRNA-lipid nanoparticle are systemically administered by tail vein injection and animals euthanized at a specific time point (e.g., 4 hours) post-administration. Liver and spleen are collected in pre-weighed tubes, weights determined, immediately snap frozen in liquid nitrogen and stored at −80° C. until processing for analysis.
For liver, approximately 50 mg is dissected for analyses in a 2 mL FastPrep tubes (MP Biomedicals, Solon OH). ¼″ ceramic sphere (MP Biomedicals) is added to each tube and 500 μL of Glo Lysis Buffer—GLB (Promega, Madison WI) equilibrated to room temperature is added to liver tissue. Liver tissues are homogenized with the FastPrep24 instrument (MP Biomedicals) at 2×6.0 m/s for 15 seconds. Homogenate is incubated at room temperature for 5 minutes prior to a 1:4 dilution in GLB and assessed using SteadyGlo Luciferase assay system (Promega). Specifically, 50 μL of diluted tissue homogenate is reacted with 50 μL of SteadyGlo substrate, shaken for 10 seconds followed by 5 minute incubation and then quantitated using a CentroXS^3 LB 960 luminometer (Berthold Technologies, Germany). The amount of protein assayed is determined by using the BCA protein assay kit (Pierce, Rockford, IL). Relative luminescence units (RLU) are then normalized to total μg protein assayed. To convert RLU to ng luciferase a standard curve is generated with QuantiLum Recombinant Luciferase (Promega).
The FLuc mRNA (L-6107) from Trilink Biotechnologies will express a luciferase protein, originally isolated from the firefly, Photinus pyralis. FLuc is commonly used in mammalian cell culture to measure both gene expression and cell viability. It emits bioluminescence in the presence of the substrate, luciferin. This capped and polyadenylated mRNA is fully substituted with 5-methylcytidine and pseudouridine.
Representative compounds of the disclosure shown in Table 2 were formulated using the following molar ratio: 50% cationic lipid/10% distearoylphosphatidylcholine (DSPC)/38.5% Cholesterol/1.5% PEG lipid 2-[2-(ω-methoxy(polyethyleneglycol2000)ethoxy]-N,N-ditetradecyl acetamide) or 47.5% cationic lipid/10% DSPC/40.7% Cholesterol/1.8% PEG lipid. Relative activity was determined by measuring luciferase expression in the liver 4 hours following administration via tail vein injection as described in Example 1 or by measuring the amount of human IgG in mouse serum as described in example 2. The activity was compared at a dose of 1.0 or 0.5 or 0.3 mg mRNA/kg and expressed as ng luciferase/g liver measured 4 hours after administration, as described in Example 1 or as μg IgG/mL serum measured 24 hours after administration, as described in Example 2. Compound numbers in Table 2 refer to the compound numbers of Table 1.

Each structure is given as a SMILES string.

For the compound `CCCCCCCCN(CCCCCCCC)C(=O)CCCCCN(CCO)CCCCCC(=O)N(CCCCCCCC)CCCCCCCC` [Compound I-3, 6,6′-((2-hydroxyethyl)azanediyl)bis(N,N-dioctylhexanamide)], the pKa (as a rule, the pH at which an ionisable group is half protonated) in data set [1] amounted to 6.87. For the same compound, the “Liver Luc, *Determined at 0.5 mg/kg” value in data set [2] is on record as 227 ± 138* ng/g.

In data set [1], `CCCCCCCCCCN(CCCCCCCCCC)C(=O)CCCCCCCN(C)CCCCCCCC(=O)N(CCCCCCCCCC)CCCCCCCCCC` [Compound I-6, 8,8′-(methylazanediyl)bis(N,N-didecyloctanamide)] returned a pKa of 6.19. Besides, in data set [2], the “Liver Luc @ 0.3 mg/kg” value worked out at 20084 ± 5967 ng/g and the “Liver Luc @ 1.0 mg/kg” value came to 78367 ± 15904 ng/g.

With `CCCCCCCCN(CCCCCCCC)C(=O)CCCCCCCN(C)CCCCCCCC(=O)N(CCCCCCCC)CCCCCCCC` [Compound I-7, 8,8′-(methylazanediyl)bis(N,N-dioctyloctanamide)], the pKa in data set [1] was 6.43. In data set [2], the “Liver Luc @ 0.3 mg/kg” value came to 16595 ± 836 ng/g and the “Liver Luc @ 1.0 mg/kg” value is given as 81021 ± 24105 ng/g.

In data set [1], `CCCCCCCCN(CCCCCCCC)C(=O)CCCCCCCCCN(C)CCCCCCCCCC(=O)N(CCCCCCCC)CCCCCCCC` [Compound I-8, 10,10′-(methylazanediyl)bis(N,N-dioctyldecanamide)] yielded a pKa of 6.02. For the same compound, in data set [2], the “Liver Luc @ 0.3 mg/kg” value amounted to 8743 ± 2153 ng/g and the “Liver Luc @ 1.0 mg/kg” value was determined as 37220 ± 15377 ng/g.

The compound `CCCCCCCCCCCCCCCC(=O)N(CCCCCC)CCCCCCN(C)CCCCCCN(CCCCCC)C(=O)CCCCCCCCCCCCCCC` [Compound I-9, N,N′-((methylazanediyl)bis(hexane-6,1-diyl))bis(N-hexylpalmitamide)] came in with a pKa in data set [1] of 6.83. In data set [2], the “Liver Luc @ 0.3 mg/kg” value is on record as 4337 ± 1394 ng/g and the “Liver Luc @ 1.0 mg/kg” value stood at 21023 ± 12693 ng/g.

In turn, `CCCCCCCCCCN(CCCCCCCCCC)C(=O)CCCCCN(C)CCCCCC(=O)N(CCCCCCCCCC)CCCCCCCCCC` [Compound I-10, 6,6′-(methylazanediyl)bis(N,N-didecylhexanamide)] yielded a pKa in data set [1] of 6.77. Further, in data set [2], the “Liver Luc @ 0.3 mg/kg” value amounted to 10779 ± 2473 ng/g and the “Liver Luc @ 1.0 mg/kg” value came out at 22622 ± 8189 ng/g.

`CCCCC/C=C\C/C=C\CCCCCCCC(=O)N(CCCCCC)CCCCCCN(C)CCCCCCN(CCCCCC)C(=O)CCCCCCC/C=C\C/C=C\CCCCC` [Compound I-14, (9Z,9′Z,12Z,12′Z)—N,N′-((methylazanediyl)bis(hexane-6,1-diyl))bis(N-hexyloctadeca-9,12-dienamide)] gave a pKa in data set [1] of 6.59. Further, in data set [2], the “Liver Luc @ 0.3 mg/kg” value was 2738 ± 728 ng/g and the “Liver Luc @ 1.0 mg/kg” value came to 5735 ± 2364 ng/g.

Take `CCCCCCCCN(CCCCCCCC)C(=O)CCCCCCCCCN(CCCCCCO)CCCCCCCCCC(=O)N(CCCCCCCC)CCCCCCCC` [Compound I-18, 10,10′-((6-hydroxyhexyl)azanediyl)bis(N,N-dioctyldecanamide)]: the pKa in data set [1] turned out to be 6.02. Besides, in data set [2], the “Liver Luc @ 0.3 mg/kg” value is listed as 7115 ± 2087 ng/g and the “Liver Luc @ 1.0 mg/kg” value worked out at 14879 ± 1595 ng/g.

As for `CCCCCCCCCCN(CCCCCCCCCC)C(=O)CCCCCCCCCN(CCO)CCCCCCCCCC(=O)N(CCCCCCCCCC)CCCCCCCCCC` [Compound I-20, 10,10′-((2-hydroxyethyl)azanediyl)bis(N,N-didecyldecanamide)], the pKa in data set [1] came out at 6.27. In addition, the “Liver Luc, *Determined at 0.5 mg/kg” value in data set [2] is recorded as 879 ± 365* ng/g.

In the case of `CCCCCCCCCCN(CCCCCCCCCC)C(=O)CCCCCCCCCN(CCCCO)CCCCCCCCCC(=O)N(CCCCCCCCCC)CCCCCCCCCC` [Compound I-25, 10,10′-((4-hydroxybutyl)azanediyl)bis(N,N-didecyldecanamide)], the pKa in data set [1] was found to be 6.28. Besides, in data set [2], the “Liver Luc @ 0.3 mg/kg” value is given as 20276 ± 3044 ng/g and the “Liver Luc @ 1.0 mg/kg” value is given as 64656 ± 24090 ng/g.

Regarding `CCCCC(CC)CN(CC(CC)CCCC)C(=O)CCCCCN(CCCCO)CCCCCC(=O)N(CC(CC)CCCC)CC(CC)CCCC` (stereo not drawn) [Compound I-27, 6,6′-((4-hydroxybutyl)azanediyl)bis(N,N-bis(2-ethylhexyl)hexanamide)], the pKa in data set [1] is 6.56. Further, in data set [2], the “Liver Luc, *Determined at 0.5 mg/kg” value was 21 ± 6* ng/g.

The compound `CCCCCCCCCCN(CCCCCCCCCC)C(=O)CCCCCCCCCN(CCCCCCCCCC(=O)N(CCCCCCCCCC)CCCCCCCCCC)CCN(C)C` [Compound I-28, 10,10′-((2-(dimethylamino)ethyl)azanediyl)bis(N,N-didecyldecanamide)] showed a pKa in data set [1] of 6.22. Also, in data set [2], the “Liver Luc @ 0.3 mg/kg” value amounted to 6602 ± 2609 ng/g and the “Liver Luc @ 1.0 mg/kg” value stood at 13298 ± 4040 ng/g.

In data set [1], `CCCCCCCCCCNC(=O)CCCCN(CCCCCCCC(=O)N(CCCCCCCCCC)CCCCCCCCCC)CCCCCCCC(=O)N(CCCCCCCCCC)CCCCCCCCCC` [Compound I-30, 8,8′-((5-(decylamino)-5-oxopentyl)azanediyl)bis(N,N-didecyloctanamide)] showed a pKa of 6.16. For the same compound, in data set [2], the “Liver Luc @ 0.3 mg/kg” value is given as 6567 ± 1534 ng/g and the “Liver Luc @ 1.0 mg/kg” value is on record as 19625 ± 2173 ng/g.

In data set [1], `CCCCCCCCCCN(CCCCCCCCCC)C(=O)CCCCCCCN(CCCCCCCC(=O)N(CCCCCCCCCC)CCCCCCCCCC)CCOCCOC` [Compound I-46, 8,8′-((2-(2-methoxyethoxy)ethyl)azanediyl)bis(N,N-didecyloctanamide)] returned a pKa of 5.91. Besides, in data set [2], the “Liver Luc @ 0.3 mg/kg” value was 10201 ± 2440 ng/g and the “Liver Luc @ 1.0 mg/kg” value was determined as 52937 ± 8101 ng/g.

The compound `CCCCCCCCCCN(CCCCCCCCCC)C(=O)CCCCCCCN(C)CCCCCCCC(=O)N(CCCCCCCC)CCCCCCCC` [Compound I-55, N,N-didecyl-8-((8-(dioctylamino)-8-oxooctyl)(methyl)amino)octanamide] displayed a pKa in data set [1] of 6.22. In data set [2], the “Liver Luc @ 0.3 mg/kg” value came out at 8244 ± 1599 ng/g and the “Liver Luc @ 1.0 mg/kg” value was found to be 30106 ± 13756 ng/g.

In data set [1], `CCCCCCCCCCN(CCCCCCCCCC)C(=O)CCCCCCCCCN(CCCCCCCCCC(=O)N(CCCCCCCCCC)CCCCCCCCCC)CCCn1ccnc1` [Compound I-57, 10,10′-((3-(1H-imidazol-1-yl)propyl)azanediyl)bis(N,N-didecyldecanamide)] returned a pKa of 6.24. In data set [2], the “Liver Luc @ 0.3 mg/kg” value stood at 476 ± 134 ng/g and the “Liver Luc @ 1.0 mg/kg” value came out at 1456 ± 518 ng/g.
